Data set [1] deals with neuropathological damage induced by Aβ fibrils. Briefly: Neuropathological damage induced by Aβ fibrils in vivo (stereotactic injection into the dorsal hippocampus). The note with it: male rats, product co-injected with 80 μg Aβ fibrils into the dorsal hippocampus; for Density of reactive astrocytes: control 11 ± 4, fibrils only 39 ± 7; for Measurement of astrocyte soma: control 101 ± 18, fibrils only 310 ± 16.
Method: To evaluate the potential neuroprotective effect of the products according to the invention, male rats were treated stereotactically in the dorsal hippocampus with 80 μg of Aβ fibrils in the presence or absence of the products.

Data set [2] is described as follows: Plasma and brain levels in mice treated subacutely by intraperitoneal administration (HPLC/MS/MS). Conditions: 20 mg/kg i.p. twice a day for 4 days, mean±S.E. of 4 animals. The method, then: In mice treated subacutely (twice a day for 4 days) by intraperitoneal administration at the dose of 20 mg/kg of the products according to the invention, their brain and plasma levels were determined by a combined HPLC/MS/MS analysis technique developed on the basis of a method already described by Keller J. H. et al. (Anal. Chem. 75, 6084, 2003).
Each value is the mean±S.E. of 4 animals. Time 0 corresponds to the 14th hour after the previous treatment

Where [3] appears, read: time 0 h (14th hour after the previous treatment).

As to “deisopropyl-dehydro tetrahydro adhyperforin”, in data set [1], the “Density of reactive astrocytes” value was 24 ± 4 GFAP^+ cell./4 × 10^3 μm^2 and the “Measurement of astrocyte soma” value was determined as 117 ± 9 arbitrary unit.
For `CC(C)=CCC[C@]1(C)[C@@H](CC=C(C)C)C[C@@]2(CC=C(C)C)C(=O)[C@]1(C(=O)C(C)C)C(=O)C(CC=C(C)C)=C2O` [Hyperforin, hyperforin], the “Density of reactive astrocytes” value in data set [1] was 37 ± 6 GFAP^+ cell./4 × 10^3 μm^2. In addition, the “Measurement of astrocyte soma” value in data set [1] came out at 306 ± 14 arbitrary unit. The Brain in data set [2] (setting [3]) was 15.2 ± 16.1 ng/g; in data set [2] (time 1 h), 21.1 ± 7.4 ng/g; in data set [2] (time 2 h), 23.2 ± 7.8 ng/g; in data set [2] (time 4 h), 32.3 ± 8.1 ng/g; in data set [2] (time 6 h), 35.6 ± 8.8 ng/g. Also, the Brain/Plasma in data set [2] (setting [3]) is 1.89 ± 0.91%; in data set [2] (time 1 h) it was 1.24 ± 0.75%; in data set [2] (time 2 h) it was 1.32 ± 0.82%; in data set [2] (time 4 h), 1.91 ± 0.91%; in data set [2] (time 6 h), 2.12 ± 1.12%. Moreover, the Plasma in data set [2] (setting [3]) worked out at 624.5 ± 81.8 ng/mL; in data set [2] (time 1 h), 1547.2 ± 226.6 ng/mL; in data set [2] (time 2 h), 1421.3 ± 235.4 ng/mL; in data set [2] (time 4 h), 1275.4 ± 212.8 ng/mL; in data set [2] (time 6 h), 1192.6 ± 196.5 ng/mL.

(Values after patent US9556099B2 (INDENA S.P.A., priority 2013, dated 2017).)
